Patent US9060537B2, “Method for enhancing rebaudioside D solubility in water” (PEPSICO, INC., priority 2012, dated 2015)

How the values were obtained:
[1] = Modified Reb D solubility in water; type: physicochemical
[2] = co-crystallization of quercetin with caffeine, mass ratio 2:1; cited from earlier work
[3] = co-crystallization of quercetin with caffeine, mass ratio 2:1; cited from earlier work; remark: listed apart in the source

C=C1C[C@@]23CC[C@H]4[C@@](C)(CCC[C@@]4(C)C(=O)O[C@@H]4O[C@H](CO)[C@@H](O)[C@H](O)[C@H]4O[C@@H]4O[C@H](CO)[C@@H](O)[C@H](O)[C@H]4O)[C@@H]2CC[C@]1(O[C@@H]1O[C@H](CO)[C@@H](O)[C@H](O[C@@H]2O[C@H](CO)[C@@H](O)[C@H](O)[C@H]2O)[C@H]1O[C@@H]1O[C@H](CO)[C@@H](O)[C@H](O)[C@H]1O)C3 [Control, Rebaudioside D]
Solubility (23° C.) (ppm) ([1]; in water, 23° C.): 350 ppm
solubility of the Reb D after spray drying the clear Reb D solution to a fine powder ([1]; spray dried without enhancer or stabilizer): 1500 ppm
solubility in water ([1]; water at 23° C. / room temperature, untreated Reb D or powders as worded): 300 ppm
maximum solubility in heated water ([1]; water heated above 70° C., typically 80 to 100° C.): 2.5 wt %

O=c1c(O)c(-c2ccc(O)c(O)c2)oc2cc(O)cc(O)c12 [quercetin]
bioavailability increase [2]: 10 fold
solubility increase [3]: 14 fold
